Laboratory results taken from patent US12648919B2, “Anticoccidial composition comprising coumaric acid and use thereof” (CJ CHEILJEDANG CORPORATION, priority 2021, dated 2026).

Legend:
Eimeria acervulina = assay: Cell invasion inhibition of Eimeria acervulina protozoa in MDBK cells (PCR, ACE gene); assay type: cell-based; details: 40° C., 24 hours, p-coumaric acid, gallic acid, salinomycin 10 ppm, diclazuril 1 ppm
Description: (§1) A certain amount of oocysts of each of Eimeria tenella and Eimeria acervulina was put in a tube containing glass beads and pulverized, and then to remove the crushed oocyst cell wall and other debris, internal sporocysts were purified using the percoll density gradient, and washed with PBS solution. A reagent comprising sodium taurocholic acid (Sigma aldrich, USA) and trypsin (Gibco, USA), respectively, was treated to sporocysts of Eimeria tenella, Eimeria acervulina and Eimeria maxima for excystation and they were incubated, and then they were washed with PBS solution once and protozoa were obtained.
(§2) The protozoa of Eimeria tenella and Eimeria acervulina were obtained by the method of Example 3-1 above. Sporozoites of 2×10^5 per well were added to a well in which MDBK cells (purchased from ATCC) spread as a monolayer and each material (p-coumaric acid: sigma, CAS No. 501-98-4, and anticoccidial agents, gallic acid: sigma, CAS No. 149-91-7, salinomycin: CAS No. sigma, 53003-10-4, diclazuril: sigma, CAS No. 101831-37-2, p-coumaric acid, gallic acid and salinomycin were treated by 10 ppm, and diclazuril was treated by 1 ppm) was treated to the cells, and cultured at a temperature of 40° C. for 24 hours. The negative control group is MDBK cells infected by the protozoa, and the positive control group means a group in which gallic acid, salinomycin or diclazuril solution was incubated with the protozoa. […] After removing the cells and protozoa inside the cells through pipetting, DNA was extracted from the cells, and PCR was performed using E. tenella ITS-1 (Internal transcribed spacer-1) gene or E. acervulina ACE gene-specific primers. The sequences of the used primers were described in Table 5 below.
(§3) Ct values before/after washing for each material were compared and corrected with the ΔCt value of the negative control group to calculate the fold change (2^−ΔCt) at each time point compared to the control group, and the invasion inhibition rate (%) of the protozoa by material treatment was calculated, and the result was shown in Table 6 and Table 7.

Eimeria tenella [1] = assay: Intracellular propagation inhibition of Eimeria tenella protozoa in MDBK cells (PCR, ITS-1 gene); assay type: cell-based
Description: as §1
The protozoa of Eimeria tenella were obtained by the method of Example 3-1 above. […] Each material (p-coumaric acid, and anticoccidial agents, gallic acid, salinomycin: 10 ppm and diclazuril: 1 ppm) to the cells, and further cultured at a temperature of 40° C. for 24 hours.
The negative control group is MDBK cells infected by the protozoa, and the positive control group means a group in which salinomycin, gallic acid, or diclazuril solution was incubated with the protozoa. After removing the cells and protozoa inside the cells through pipetting, DNA was extracted from the cells using DNA extract kit (iNtRON Biotechnology), and PCR was performed using E. tenella ITS-1 (Internal transcribed spacer-1) gene-specific primers. The sequences of the used primers were described in Table 5 above. Ct values before/after washing for each material were compared and corrected with the ΔCt value of the negative control group to calculate the fold change (2^−ΔCt) at each time point compared to the control group, and the invasion inhibition rate (%) of the protozoa by material treatment was calculated, and the result was shown in Table 6 above.

Eimeria tenella [2] = assay: Cell invasion inhibition of Eimeria tenella protozoa in MDBK cells (PCR, ITS-1 gene); assay type: cell-based; details: for inhibition at 10 ppm: read-out: Invasion inhibition %
Description: as §1, §2, §3
By the similar method to Example 3-2 above, 0.1% DMSO, p-coumaric acid (sigma, CAS No. 501-98-4), m-coumaric acid (sigma, 14755-02-3), and o-coumaric acid (sigma, 614-60-8) were treated at a concentration of 10 ppm, respectively, and the cell invasion inhibition rate against the Eimeria tenella protozoan was measured, and the result was shown in Table 9.

[3] = test system: Eimeria tenella protozoa (sporozoites); assay: Direct killing effect against Eimeria tenella protozoa (sporozoites), microscopic count; details: 10 ppm; death rate compared to PBS-treated negative control group
Description: as §1, with “the protozoa” for “each of Eimeria tenella and Eimeria acervulina”, “tenella” for “tenella, Eimeria acervulina and Eimeria maxima”
After reacting 0.1% DMSO, m-coumaric acid (sigma, 14755-02-3), Caffeic acid (sigma, 331-39-5) and Ferulic acid (sigma, 1135-24-6) with the Eimeria tenella protozoa at a concentration of 10 ppm, respectively, only alive protozoa (sporozoites) were counted through microscopic observation. Then, the death rate (%) of the protozoa when each material was treated compared to the PBS-treated negative control group was measured, and the result was shown in Table 8 below.

Eimeria tenella [4] = assay: In vivo anticoccidial efficacy in broilers challenge-inoculated with Eimeria tenella oocysts (anticoccidial index); design: species or system Ross broilers; details: in feed: salinomycin 60 ppm, VantiPEARL 125 ppm, p-coumaric acid 125 ppm; for Oocyst excretion amount: feces of 6-9th day of challenge inoculation, McMaster chamber; for ADG after challenge inoculation: before challenge to 7th day after challenge, 10,000 oocysts oral/broiler; for Oocyst index: index 0/5/10/20/40 from oocyst excretion % compared to infected negative control group; for Appendix lesion index: lesion score x 10; for ACI (anticoccidial index): out of 200 points, Equation 2; for Appendix lesion score: scale 0-4, 9th day after challenge inoculation; for Survival rate: up to the 8th day after challenge inoculation
Description: An in vivo efficacy evaluation test was performed in an exclusive broiler animal experiment facility in U.S. One-day-old female Ross broilers were individually weighed and randomly divided into groups to use in an experiment.
For the feed, Korea Feed A1-choi product was used, and each material (salinomycin (Cheil Bio Cheilsalino-60 product), VantiPEAL (Kemin, Cozante, key substance: Gallic acid), p-coumaric acid (CAS No. 501-98-4; sigma)) was added to the feed, respectively, at a concentration described in Table 3 below to be self-mixed. Antibiotics and supplements were not used in general feed and mixed feed, and no anticoccidial agent other than each material was added. Broilers were fed ad libitum throughout the experiment period.
Coccidiosis induction was performed by oral inoculation (challenge inoculation) in an oral tube type of 10,000 oocysts with over 90% mature (sporulation) Eimeria tenella per one individual to 14-day-old broilers.
The feed formulation administered to the control group (negative control group or positive control group) and test group and whether coccidiosis was induced by Eimeria tenella were described in Table 3 below. 6 1-day-old broilers were put in a cage randomly arranged for each test group, and after 14 days of feeding the general feed, the formulated feed prepared above was divided into each control group or test group and ingested.
The anticoccidial efficacy by test group designed in Example 1-2 above was shown as an anticoccidial index (ACI), and the anticoccidial index was calculated by Equation 2 below. The ACI score is out of 200 points, and the higher the ACI score, the more excellent the anticoccidial ability, and when it is 120 points or more to less than 140 points, it is determined that it is effective as an anticoccidial material, and when it is 140 points or more to less than 160 points, it is determined that it is excellent as an anticoccidial material, and when it is 160 points or more, it is determined that the anticoccidial effect is very excellent. (Luis Miguel De Pablos et al., Anticoccidial activity of maslinic acid against infection with Eimeria tenella in chickens, Parasitol Res, 2010) Anticoccidial index (ACI)=(survival rate after challenge inoculation (%))+(daily weight gain compared to negative control group (RWG, %))−(lesion score×10)−(fecal oocyst excretion amount index) (Equation 2)
1) Survival rate: the number of dead individuals was recorded daily, and post mortem autopsy was performed to determine a cause of mortality, and the number of individuals who died due to causes other than coccidiosis was excluded. The survival rate (%) up to the 8th day after challenge inoculation was used for anticoccidial index calculation.
2) Daily weight gain: body weight was measured for each cage before challenge inoculation with a protozoan into an individual and at the 7th day after challenge inoculation, and the difference was divided by the number of days to calculate the daily weight gain (ADG, g/d). ‘Daily weight gain compared to the negative control group (RWG, %)’ which was calculated by dividing the daily weight gain (ADG, average daily gain: g/d) of each experimental group by the weight gain (ADG, g/d) of the non-infected negative control group and multiplying by 100 was used for anticoccidial index calculation.
3) Lesion scoring: On the 9th day after challenge inoculation, an autopsy was conducted for 4 broilers per cage, and the intestines were incised and opened. Scoring was performed for each coccidial lesion in the appendix region of the broilers. The lesion scoring method was performed by referring to Johnson J K & Reid W M (1970) document (Joyce Johnson, W. Malcolm Reid, Anticoccidial drugs: Lesion scoring techniques in battery and floor-pen experiments with chickens, Experimental parasitology, 1970). […]

[5] = MDBK cells, material added after 24 h invasion and washing, further 24 hours at 40° C., p-coumaric acid, gallic acid, salinomycin 10 ppm, diclazuril 1 ppm
[6] = Example 3-2, MDBK cells, 40° C., 24 hours, p-coumaric acid, gallic acid, salinomycin 10 ppm, diclazuril 1 ppm
[7] = Eimeria tenella, Example 4-2, MDBK cells, 10 ppm

With N#CC(c1ccc(Cl)cc1)c1c(Cl)cc(-n2ncc(=O)[nH]c2=O)cc1Cl (stereo not shown) [Diclazuril, diclazuril] the inhibition at 1 ppm (Eimeria acervulina; Eimeria acervulina) was 42.7%, the inhibition at 1 ppm (Eimeria tenella [1]; Eimeria tenella, MDBK cells, material added after 24 h invasion and washing, further 24 hours at 40° C., p-coumaric acid, gallic acid, salinomycin 10 ppm, diclazuril 1 ppm) was 52.9% and the inhibition at 1 ppm (Eimeria tenella [2]; Eimeria tenella, Example 3-2, MDBK cells, 40° C., 24 hours, p-coumaric acid, gallic acid, salinomycin 10 ppm, diclazuril 1 ppm) was 6.3%.
O=C(O)/C=C/c1ccc(O)c(O)c1 [Caffeic acid] showed a Killed sporozoites % [3] of 0%.
For O=C(O)c1cc(O)c(O)c(O)c1 [Gallic acid, gallic acid], the Invasion inhibition % (Eimeria acervulina) was 60.6%, the Propagation inhibition % (Eimeria tenella [1]; [5]) was 0.0% and the Invasion inhibition % (Eimeria tenella [2]; [6]) was 90.1%.
For O=C(O)/C=C/c1ccc(O)cc1 [p-coumaric acid], the Invasion inhibition % (Eimeria acervulina) was 82.6%, the Oocyst excretion amount (Eimeria tenella [4]) was 5.7 × 10^7 Oocyst/chicken and the “RWG (daily weight gain compared to the non-infected negative control group)” value (Eimeria tenella [4]) was 94.5%. For the same compound, the “ADG after challenge inoculation” value (Eimeria tenella [4]) was 52 g/day, the Oocyst index (Eimeria tenella [4]) was 10 and the Appendix lesion index (Eimeria tenella [4]) was 25. For the same compound, the “ACI (anticoccidial index)” value (Eimeria tenella [4]) was 160 points, the Appendix lesion score (Eimeria tenella [4]) was 2.5 and the Survival rate (Eimeria tenella [4]) was 100%. For the same compound, the Propagation inhibition % (Eimeria tenella [1]; [5]) was 43.9%, the inhibition at 10 ppm (Eimeria tenella [2]; [7]) was 7.98% and the Invasion inhibition % (Eimeria tenella [2]; [6]) was 54.3%.
In the case of COc1cc(/C=C/C(=O)O)ccc1O [Ferulic acid], the Killed sporozoites % [3] was 0%.
In the case of CC[C@@H](C(=O)[C@@H](C)[C@@H](O)[C@H](C)[C@@H]1O[C@@H]([C@@H](CC)C(=O)O)CC[C@@H]1C)[C@H]1O[C@]2(C=C[C@@H](O)[C@]3(CC[C@@](C)([C@H]4CC[C@](O)(CC)[C@H](C)O4)O3)O2)[C@H](C)C[C@@H]1C [Salinomycin, salinomycin], the inhibition at 10 ppm (Eimeria acervulina; Eimeria acervulina) was 59.4%, the Oocyst excretion amount (Eimeria tenella [4]) was 6.3 × 10^7 Oocyst/chicken and the “RWG (daily weight gain compared to the non-infected negative control group)” value (Eimeria tenella [4]) was 81.8%. The “ADG after challenge inoculation” value (Eimeria tenella [4]) was 45 g/day, the Oocyst index (Eimeria tenella [4]) was 10 and the Appendix lesion index (Eimeria tenella [4]) was 22.7. The “ACI (anticoccidial index)” value (Eimeria tenella [4]) was 149 points, the Appendix lesion score (Eimeria tenella [4]) was 2.27 and the Survival rate (Eimeria tenella [4]) was 100%. It also gave an inhibition at 10 ppm (Eimeria tenella [1]; Eimeria tenella, MDBK, 24 h, read-out: Propagation inhibition %) of 34.8% and an inhibition at 10 ppm (Eimeria tenella [2]; Eimeria tenella, MDBK, 24 h) of 56.4%.
O=C(O)/C=C/c1ccccc1O [o-coumaric acid] showed an inhibition at 10 ppm (Eimeria tenella [2]; [7]) of 39.6%.
O=C(O)/C=C/c1cccc(O)c1 [m-coumaric acid] showed a Killed sporozoites % [3] of 10.7% and an inhibition at 10 ppm (Eimeria tenella [2]; [7]) of 29.8%.
